Reference: patent US10023902B2, “Methods for detecting enzyme activity using fluorescence lifetime imaging” (Purdue Research Foundation, priority 2012, dated 2018)
Residues, ends and D or L forms follow the SMILES beside them. No end group written: not given here. *: point of attachment. X1 = C[N+]1=C(C=CC=CC=C2N(CCCCCC(=O)NCCN3C(=O)CC(*)C3=O)c3ccccc3C2(C)C)C(C)(C)c2ccccc21; Cy5 = Cy5 fluorophore label on the Cys side chain

Tests used:
[1] = test system: MEFs; settings: FCS, Cy5 alone vs biosensor
Protocol: Sequestration of the biosensor in endosomes was tested by staining for an endosomal marker. […] Peptide degradation, a potential issue in some cell types, was also examined.

[2] = test system: Abl kinase; assay: Biosensor Cy5 fluorescence lifetime analysis in live MEFs (FLIM); assay type: cell-based, mouse; settings: control MEFs expressing Abl kinase, 50 nM, 24 h; non-parametric ANOVA, P<0.05
Protocol: With reference to FIG. 3, WT MEF cells (unless otherwise indicated) were cultured on cover slips and incubated with the biosensor peptide or a control (as indicated, 50 nM for each) for 24 h, then imaged using the FLIM system. Data were extracted from raw FLIM images and represented as lifetime maps of autofluorescence, Cy5 only, Abl-TAT in Abl (−/−) MEFs, Abl-TAT in WT MEFs, Abl-F-mutant, Abl-phospho. With reference to FIG. 3A, fluorophore lifetime per cell was averaged for at least 20 cells in 3-5 replicate experiments and plotted as a distribution of lifetimes observed in each condition. Error bars represent standard error of the mean for each lifetime value. […] Error bars represent SEM.
Cover slips were washed with PBS and imaged immediately.
Average lifetimes per cell for multiple cells were calculated and plotted to show the distribution of lifetimes observed for the biosensor and each control (FIG. 3G). The distributions were determined to be non-Gaussian, so non-parametric ANOVA with a Dunn's post-test was used to evaluate statistical significance (P<0.05) for differences in the mean lifetimes. […] These experiments confirmed that the increase in Cy5 lifetime was specific and due to Abl-dependent phosphorylation of the biosensor peptide on tyrosine. […]

[3] = test system: Syk kinase; assay: FLIM detection of Syk kinase activity with SAStide-TAT biosensor in MCF7 breast cancer cells; assay type: cell-based

Compound: CC[C@H](C)[C@H](NC(=O)[C@H](C)NC(=O)[C@H](CCC(=O)O)NC(=O)CNC(=O)CN)C(=O)N[C@@H](Cc1ccc(O)cc1)C(=O)N[C@@H](C)C(=O)N[C@@H](C)C(=O)N1CCC[C@H]1C(=O)N[C@@H](CSC1CC(=O)N(CCNC(=O)CCCCCN2C(=CC=CC=CC3=[N+](C)c4ccccc4C3(C)C)C(C)(C)c3ccccc32)C1=O)C(=O)NCC(=O)NCC(=O)N[C@@H](CCCNC(=N)N)C(=O)N[C@@H](CCCCN)C(=O)N[C@@H](CCCCN)C(=O)N[C@@H](CCCNC(=N)N)C(=O)N[C@@H](CCCNC(=N)N)C(=O)N[C@@H](CCC(N)=O)C(=O)N[C@@H](CCCNC(=N)N)C(=O)N[C@@H](CCCNC(=N)N)C(=O)N[C@@H](CCCNC(=N)N)C(=O)N1CCC[C@H]1C(=O)N[C@@H](CCC(N)=O)C(=O)O (some centres unmarked) [Abl-TAT] (H-GGEAIYAAPC(X1)GGRKKRRQRRRPQ-OH)
- peptide degradation to free Cy5 [1]: not degraded to free Cy5

Compound: CCN1/C(=C/C=C/C=C/C2=[N+](CCCCCC(=O)O)c3ccc(S(=O)(=O)O)cc3C2(C)C)C(C)(C)c2cc(S(=O)(=O)[O-])ccc21 [Cy5, reference compound]
- mean Cy5 fluorescence lifetime per cell [2]: significantly lower mean lifetimes than both Abl-TAT in MEFs expressing Abl kinase and Abl-phospho

Compound: COc1cc(Nc2ncc(F)c(Nc3ccc4c(n3)N(COP(=O)(O)O)C(=O)C(C)(C)O4)n2)cc(OC)c1OC [fostamatinib, reference compound]
- regions of increased Cy5 lifetime after inhibitor pre-treatment ([3]; Syk +/+ cells pre-treated with SAStide-TAT-Cy5 biosensor and inhibitor, 1 hour): no regions of increased lifetime were observed

Compound: Abl-F-mutant: analog having a phenylalanine substitution for the tyrosine residue of the Abltide-TAT biosensor, SEQ ID NO:3 (EAIYAAP)
- mean Cy5 fluorescence lifetime per cell [2]: significantly lower mean lifetimes than both Abl-TAT in MEFs expressing Abl kinase and Abl-phospho

Compound: DEEDYEEPDEPGGCCy5GGRKKRRQRRRPQ (DEEDYEEPDEPGGC(Cy5)GGRKKRRQRRRPQ) [SAStide-TAT, Cy5-labeled Syk substrate peptide]
- Cy5 lifetime shift of biosensor ([3]; active Syk-expressing cells, pervanadate (Syk activation conditions), co-localizes with decreased EGFP lifetime): increased Cy5 lifetime
